What was measured:
NaV1.8 [1] = biological target: T1, NaV1.8 (Rattus norvegicus, UniProt Q62968); test: radioligand saturation binding autoradiography on rat brain sections, with homologous block
T1 construct: gene Scn10a; native protein in rat brain sections

NaV1.8 [2] = biological target: T1, NaV1.8; test: competition autoradiography, displacement of [^11C]suzetrigine on rat brain sections; details: read-out: % reduction of binding at 2 μM

T1 sequence (Q62968 whole entry): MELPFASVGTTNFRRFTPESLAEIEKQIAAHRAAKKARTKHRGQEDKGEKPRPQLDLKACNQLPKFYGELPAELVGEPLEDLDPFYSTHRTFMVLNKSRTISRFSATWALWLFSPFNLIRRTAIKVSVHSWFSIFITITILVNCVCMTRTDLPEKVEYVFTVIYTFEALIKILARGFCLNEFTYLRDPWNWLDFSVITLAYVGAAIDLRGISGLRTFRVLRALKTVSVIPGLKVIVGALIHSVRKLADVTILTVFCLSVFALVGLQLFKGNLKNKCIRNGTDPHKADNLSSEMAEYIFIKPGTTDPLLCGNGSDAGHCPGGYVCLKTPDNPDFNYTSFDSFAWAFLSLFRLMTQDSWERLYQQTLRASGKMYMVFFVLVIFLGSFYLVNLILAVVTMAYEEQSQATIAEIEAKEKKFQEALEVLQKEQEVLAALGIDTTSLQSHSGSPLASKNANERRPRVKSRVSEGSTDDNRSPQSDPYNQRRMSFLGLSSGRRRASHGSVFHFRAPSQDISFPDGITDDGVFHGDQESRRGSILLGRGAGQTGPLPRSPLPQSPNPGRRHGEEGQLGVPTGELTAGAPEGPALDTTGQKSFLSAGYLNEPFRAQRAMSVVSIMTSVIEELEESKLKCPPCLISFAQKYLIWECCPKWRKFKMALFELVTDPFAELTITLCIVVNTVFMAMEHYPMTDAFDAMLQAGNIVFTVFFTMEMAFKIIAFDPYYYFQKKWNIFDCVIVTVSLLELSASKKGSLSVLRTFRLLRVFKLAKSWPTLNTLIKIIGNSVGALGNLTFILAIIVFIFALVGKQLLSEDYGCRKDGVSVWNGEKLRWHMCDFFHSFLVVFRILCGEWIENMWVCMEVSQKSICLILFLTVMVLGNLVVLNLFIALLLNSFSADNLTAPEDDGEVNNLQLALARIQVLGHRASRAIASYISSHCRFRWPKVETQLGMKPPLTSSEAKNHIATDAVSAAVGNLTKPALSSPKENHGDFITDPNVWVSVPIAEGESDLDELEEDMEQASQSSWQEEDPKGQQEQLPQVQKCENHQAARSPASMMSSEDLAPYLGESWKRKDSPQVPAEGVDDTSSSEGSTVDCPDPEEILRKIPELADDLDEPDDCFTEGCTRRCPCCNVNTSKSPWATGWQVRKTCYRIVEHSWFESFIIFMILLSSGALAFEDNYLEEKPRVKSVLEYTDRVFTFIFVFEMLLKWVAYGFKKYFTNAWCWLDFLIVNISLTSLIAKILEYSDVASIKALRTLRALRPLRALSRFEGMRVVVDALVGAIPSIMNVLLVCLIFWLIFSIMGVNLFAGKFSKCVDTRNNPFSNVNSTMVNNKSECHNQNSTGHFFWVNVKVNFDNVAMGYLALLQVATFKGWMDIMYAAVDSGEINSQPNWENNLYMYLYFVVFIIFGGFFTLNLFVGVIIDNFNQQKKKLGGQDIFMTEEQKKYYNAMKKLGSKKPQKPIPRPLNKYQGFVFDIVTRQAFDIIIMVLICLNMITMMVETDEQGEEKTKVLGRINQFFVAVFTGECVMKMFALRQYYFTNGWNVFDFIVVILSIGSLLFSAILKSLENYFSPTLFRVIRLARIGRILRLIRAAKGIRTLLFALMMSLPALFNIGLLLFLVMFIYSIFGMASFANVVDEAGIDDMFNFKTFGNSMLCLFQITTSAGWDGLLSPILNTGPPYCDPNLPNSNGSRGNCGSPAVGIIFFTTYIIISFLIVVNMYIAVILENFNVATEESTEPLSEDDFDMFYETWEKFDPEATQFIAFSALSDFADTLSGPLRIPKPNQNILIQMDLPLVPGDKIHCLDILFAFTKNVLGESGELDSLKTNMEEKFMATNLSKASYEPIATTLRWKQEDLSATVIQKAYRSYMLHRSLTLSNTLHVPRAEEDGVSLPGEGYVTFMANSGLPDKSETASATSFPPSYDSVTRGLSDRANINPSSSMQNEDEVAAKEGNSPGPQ

| inhibition at 2 µM (NaV1.8 [2]) | SMILES | Kd (NaV1.8 [1]) |
| --- | --- | --- |
| – | COc1c([C@H]2[C@H](C(=O)Nc3ccnc(C(N)=O)c3)O[C@@](C)(C(F)(F)F)[C@H]2C)ccc(F)c1F [compound 2, suzetrigine] | 0.1 nM |
| ~50% | COc1cc(NC(=O)c2ccc(-c3ccc(Cl)cc3)o2)cc(OC)c1 [A-803467] | – |

From publication PMC12735773, “Toward Brain NaV1.8 Imaging with [^11C]Suzetrigine” (Pharmaceuticals, 2025)
